Assay results: ChEMBL document CHEMBL1201862, “PubChem BioAssay data set” (2004)
Calls of active or inactive are those of the source.

Tests used:
[1] = target: T1, Neuropeptides B/W receptor type 1 (Homo sapiens, UniProt P48145); assay: Fluorescence-based dose response cell-based high throughput screening assay to identify antagonists of the G-protein coupled receptor 7 (GPR7). [Related pubchem assays: 1952 (Screening assay (GPR7 antagonists).), 1880 (Summary AID.)]; assay type: functional
T1 sequence (P48145 whole entry): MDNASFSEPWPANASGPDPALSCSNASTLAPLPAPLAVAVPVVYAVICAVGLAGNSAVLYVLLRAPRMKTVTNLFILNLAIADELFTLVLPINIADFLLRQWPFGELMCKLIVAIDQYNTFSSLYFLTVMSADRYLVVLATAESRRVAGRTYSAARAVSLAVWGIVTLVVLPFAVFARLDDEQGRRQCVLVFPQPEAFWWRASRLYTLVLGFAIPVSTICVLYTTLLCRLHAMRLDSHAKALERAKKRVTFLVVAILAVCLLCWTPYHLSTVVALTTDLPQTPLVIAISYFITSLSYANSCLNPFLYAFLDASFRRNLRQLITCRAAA

[2] = target: Melanin-concentrating hormone receptor 1 (Homo sapiens, UniProt Q99705); assay: Fluorescence-based counterscreen for antagonists of the G-protein coupled receptor 7 (GPR7): cell-based high throughput dose response assay to identify antagonists of the melanin-concentrating hormone receptor 1 (MCHR1).; assay type: functional
[3] = target: Acyl-homoserine lactone acylase PvdQ (Pseudomonas aeruginosa (strain LESB58), UniProt Q9I194); assay: P. aeruginosa PvdQ acylase inhibitors, dose response, biochemical, fluorescence, plate reader and imaging, cherry-picks (AID 493231)
[4] = target: Eukaryotic translation initiation factor 4H (Homo sapiens, UniProt Q15056); assay: human eIF4H binding inhibitors, primary screen, translation initiation inhibitor project, biochemical, uHTS, fluorescence polarization (AID 2012)
[5] = target: Polyadenylate-binding protein 1 (Homo sapiens, UniProt P11940); assay: PABP poly(A) RNA binding inhibitors, primary screen, biochemical, fluorescence polarization, uHTS (AID 2014)
[6] = target: T2, Leucine aminopeptidase (Plasmodium falciparum 3D7, UniProt Q8IL11); assay: P. falciparum M17LAP inhibitors, primary screen, biochemical, fluorogenic H-Leu-NHMec substrate, 1536-well (AID 1619); assay type: functional
T2 sequence (Q8IL11 whole entry): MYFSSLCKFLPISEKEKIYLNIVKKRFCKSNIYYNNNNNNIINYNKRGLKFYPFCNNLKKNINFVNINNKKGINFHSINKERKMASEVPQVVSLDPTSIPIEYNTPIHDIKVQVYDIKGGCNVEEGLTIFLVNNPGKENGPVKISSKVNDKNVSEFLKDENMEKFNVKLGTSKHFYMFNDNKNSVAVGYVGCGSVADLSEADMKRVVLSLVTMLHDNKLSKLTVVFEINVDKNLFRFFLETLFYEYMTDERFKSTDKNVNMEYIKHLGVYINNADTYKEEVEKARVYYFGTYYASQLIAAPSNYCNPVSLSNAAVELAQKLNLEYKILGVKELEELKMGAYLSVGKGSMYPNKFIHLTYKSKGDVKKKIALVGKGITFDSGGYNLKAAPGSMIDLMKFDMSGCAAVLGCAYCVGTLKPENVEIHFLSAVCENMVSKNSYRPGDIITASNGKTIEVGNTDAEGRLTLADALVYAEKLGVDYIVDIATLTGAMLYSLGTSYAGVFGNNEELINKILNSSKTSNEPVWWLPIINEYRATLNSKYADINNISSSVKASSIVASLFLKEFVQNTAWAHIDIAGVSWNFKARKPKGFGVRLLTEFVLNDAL

[7] = target: T3, Aminopeptidase N (Plasmodium falciparum FcB1/Columbia, UniProt O96935); assay: P. falciparum M1AAP inhibitors, biochemical, fluorogenic H-Leu-NHMec substrate, 1536-well (AID 1445); parameters: species or system Plasmodium falciparum 3D7, 3D7
T3 sequence (O96935 whole entry): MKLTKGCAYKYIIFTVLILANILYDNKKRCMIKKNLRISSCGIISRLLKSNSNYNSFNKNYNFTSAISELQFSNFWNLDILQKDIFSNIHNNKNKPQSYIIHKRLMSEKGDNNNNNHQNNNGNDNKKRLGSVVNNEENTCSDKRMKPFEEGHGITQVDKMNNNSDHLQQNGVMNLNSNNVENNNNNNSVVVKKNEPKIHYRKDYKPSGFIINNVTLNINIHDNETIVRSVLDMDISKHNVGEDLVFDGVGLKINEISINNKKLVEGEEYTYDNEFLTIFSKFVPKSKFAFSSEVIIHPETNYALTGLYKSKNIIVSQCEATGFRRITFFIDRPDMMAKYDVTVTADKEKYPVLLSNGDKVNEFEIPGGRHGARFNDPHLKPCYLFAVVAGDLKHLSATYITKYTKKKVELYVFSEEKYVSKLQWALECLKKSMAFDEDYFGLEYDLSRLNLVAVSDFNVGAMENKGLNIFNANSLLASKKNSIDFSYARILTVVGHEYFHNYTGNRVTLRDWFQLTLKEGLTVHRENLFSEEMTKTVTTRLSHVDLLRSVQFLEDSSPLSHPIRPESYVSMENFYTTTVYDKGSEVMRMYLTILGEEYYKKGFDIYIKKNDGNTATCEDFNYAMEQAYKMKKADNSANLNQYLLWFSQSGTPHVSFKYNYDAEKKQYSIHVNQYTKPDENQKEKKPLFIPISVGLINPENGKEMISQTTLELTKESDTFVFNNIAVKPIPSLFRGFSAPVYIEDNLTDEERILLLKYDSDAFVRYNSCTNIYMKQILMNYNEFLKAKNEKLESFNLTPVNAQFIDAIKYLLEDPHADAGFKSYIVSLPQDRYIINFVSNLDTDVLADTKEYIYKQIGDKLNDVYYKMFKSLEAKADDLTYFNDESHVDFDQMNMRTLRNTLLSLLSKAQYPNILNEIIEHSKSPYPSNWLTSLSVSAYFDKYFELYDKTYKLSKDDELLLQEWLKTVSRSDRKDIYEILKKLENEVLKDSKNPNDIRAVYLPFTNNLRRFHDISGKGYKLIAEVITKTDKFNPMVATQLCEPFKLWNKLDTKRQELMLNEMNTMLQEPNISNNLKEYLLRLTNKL

[8] = target: T4, Kappa-type opioid receptor (Homo sapiens, UniProt P41145); assay type: functional
[9] = target: T5, Beta-galactosidase (Escherichia coli, UniProt Q8VNN2); assay type: functional
[10] = target: T4, Kappa-type opioid receptor; assay type: functional; remark: listed apart in the source
[11] = target: T6, Voltage-gated N-type calcium channel alpha-1B subunit/Amyloid beta A4 precursor protein-binding family A member 1 (Homo sapiens, UniProt Q00975+Q02410); assay type: protein assay
[12] = target: T6, Voltage-gated N-type calcium channel alpha-1B subunit/Amyloid beta A4 precursor protein-binding family A member 1; assay type: protein assay; remark: listed apart in the source
[13] = target: T5, Beta-galactosidase; assay: beta-galactosidase enzyme inhibitors and activators, dose response, artefact control for CCR6 antagonist project, biochemical, E. coli enzyme, set 3 (AID 504712); assay type: functional
[14] = Shn3 3'UTR reporter inhibitors, dose response, cell-based, Clone20 osteoblasts, firefly luciferase, cherry-picked (AID 624132); assay type: functional;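 further: firefly luciferase luminescence from reporter carrying the Shn3 3'UTR in osteoblasts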
[15] = HepG2 cell cytotoxicity, dose response, cytotoxicity control for Shn3 inhibitor project, CellTiter-Glo, cherry-picked (AID 624134); assay type: functional, cell-based
[16] = control 3'UTR Renilla luciferase suppression, dose response, counter-screen for Shn3 inhibitor project, cell-based, Clone20-Shn3RL, cherry-picked (AID 624133); assay type: functional
[17] = target: Potassium voltage-gated channel subfamily KQT member 2 (Rattus norvegicus, UniProt O88943, W236L); assay: KCNQ2 channel potentiators, dose response, mechanism study for KCNQ2 potentiator project, cell-based, automated electrophysiology (AID 2603); assay type: functional
[18] = target: Cytochrome P450 2D6 (Homo sapiens, UniProt P10635);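 further: CYP2D6 member of a cytochrome P450 panel assay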
[19] = target: Intestinal-type alkaline phosphatase (Homo sapiens, UniProt P09923); assay: Dose Response confirmation of uHTS hits from a small molecule inhibitors of human intestinal alkaline phosphatase via a luminescent assay. [Related pubchem assays (depositor defined):AID2544, AID2574]; assay type: functional
[20] = cytotoxicity in NIH/3T3 mouse fibroblasts, dose response, cytotoxicity control, cell-based, mouse embryonic fibroblasts, dry powder, set 2 (AID 493247); assay type: functional; conditions: Fibroblast
[21] = tested on: Trypanosoma cruzi; assay: growth inhibition of intracellular Trypanosoma cruzi, dose response, cell-based, plate reader, dry powder, set 3 (AID 493197); assay type: functional

T5 sequence (Q8VNN2 whole entry): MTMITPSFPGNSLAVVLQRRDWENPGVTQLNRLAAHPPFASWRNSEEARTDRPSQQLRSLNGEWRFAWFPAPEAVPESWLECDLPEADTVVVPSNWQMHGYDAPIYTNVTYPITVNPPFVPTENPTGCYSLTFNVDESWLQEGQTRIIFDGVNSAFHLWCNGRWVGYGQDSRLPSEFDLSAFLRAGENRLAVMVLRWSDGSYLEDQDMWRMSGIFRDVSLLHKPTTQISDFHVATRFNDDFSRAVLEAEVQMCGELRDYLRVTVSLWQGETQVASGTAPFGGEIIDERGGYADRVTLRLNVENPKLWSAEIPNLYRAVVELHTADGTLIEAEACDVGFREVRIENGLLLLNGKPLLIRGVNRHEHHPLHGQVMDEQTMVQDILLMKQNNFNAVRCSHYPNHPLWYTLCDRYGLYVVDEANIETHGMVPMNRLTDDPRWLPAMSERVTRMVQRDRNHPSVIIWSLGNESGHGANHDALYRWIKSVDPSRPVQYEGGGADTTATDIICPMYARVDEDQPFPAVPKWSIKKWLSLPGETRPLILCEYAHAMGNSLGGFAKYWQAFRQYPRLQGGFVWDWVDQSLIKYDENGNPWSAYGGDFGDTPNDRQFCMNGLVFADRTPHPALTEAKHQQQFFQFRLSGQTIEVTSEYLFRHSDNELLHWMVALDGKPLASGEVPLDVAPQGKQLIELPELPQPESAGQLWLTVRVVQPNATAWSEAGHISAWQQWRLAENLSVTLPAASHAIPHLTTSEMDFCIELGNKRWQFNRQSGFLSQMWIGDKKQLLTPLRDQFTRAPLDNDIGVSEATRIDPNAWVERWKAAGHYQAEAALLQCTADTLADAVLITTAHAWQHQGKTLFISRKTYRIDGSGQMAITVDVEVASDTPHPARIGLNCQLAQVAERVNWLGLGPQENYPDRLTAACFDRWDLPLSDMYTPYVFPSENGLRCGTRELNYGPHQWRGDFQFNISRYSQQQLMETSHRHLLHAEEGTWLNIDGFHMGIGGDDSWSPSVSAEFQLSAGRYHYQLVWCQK
Sequence of Melanin-concentrating hormone receptor 1 (Q99705 whole entry): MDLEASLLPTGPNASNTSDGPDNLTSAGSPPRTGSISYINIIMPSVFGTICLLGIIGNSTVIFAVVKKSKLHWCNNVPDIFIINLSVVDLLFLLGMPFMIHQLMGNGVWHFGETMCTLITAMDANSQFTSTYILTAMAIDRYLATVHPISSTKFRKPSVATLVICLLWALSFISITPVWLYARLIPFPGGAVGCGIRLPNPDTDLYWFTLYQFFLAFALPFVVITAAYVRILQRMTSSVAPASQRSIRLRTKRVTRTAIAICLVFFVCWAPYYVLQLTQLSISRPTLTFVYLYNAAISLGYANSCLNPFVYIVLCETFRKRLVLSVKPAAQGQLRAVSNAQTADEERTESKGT
T6 sequence (Q00975 whole entry): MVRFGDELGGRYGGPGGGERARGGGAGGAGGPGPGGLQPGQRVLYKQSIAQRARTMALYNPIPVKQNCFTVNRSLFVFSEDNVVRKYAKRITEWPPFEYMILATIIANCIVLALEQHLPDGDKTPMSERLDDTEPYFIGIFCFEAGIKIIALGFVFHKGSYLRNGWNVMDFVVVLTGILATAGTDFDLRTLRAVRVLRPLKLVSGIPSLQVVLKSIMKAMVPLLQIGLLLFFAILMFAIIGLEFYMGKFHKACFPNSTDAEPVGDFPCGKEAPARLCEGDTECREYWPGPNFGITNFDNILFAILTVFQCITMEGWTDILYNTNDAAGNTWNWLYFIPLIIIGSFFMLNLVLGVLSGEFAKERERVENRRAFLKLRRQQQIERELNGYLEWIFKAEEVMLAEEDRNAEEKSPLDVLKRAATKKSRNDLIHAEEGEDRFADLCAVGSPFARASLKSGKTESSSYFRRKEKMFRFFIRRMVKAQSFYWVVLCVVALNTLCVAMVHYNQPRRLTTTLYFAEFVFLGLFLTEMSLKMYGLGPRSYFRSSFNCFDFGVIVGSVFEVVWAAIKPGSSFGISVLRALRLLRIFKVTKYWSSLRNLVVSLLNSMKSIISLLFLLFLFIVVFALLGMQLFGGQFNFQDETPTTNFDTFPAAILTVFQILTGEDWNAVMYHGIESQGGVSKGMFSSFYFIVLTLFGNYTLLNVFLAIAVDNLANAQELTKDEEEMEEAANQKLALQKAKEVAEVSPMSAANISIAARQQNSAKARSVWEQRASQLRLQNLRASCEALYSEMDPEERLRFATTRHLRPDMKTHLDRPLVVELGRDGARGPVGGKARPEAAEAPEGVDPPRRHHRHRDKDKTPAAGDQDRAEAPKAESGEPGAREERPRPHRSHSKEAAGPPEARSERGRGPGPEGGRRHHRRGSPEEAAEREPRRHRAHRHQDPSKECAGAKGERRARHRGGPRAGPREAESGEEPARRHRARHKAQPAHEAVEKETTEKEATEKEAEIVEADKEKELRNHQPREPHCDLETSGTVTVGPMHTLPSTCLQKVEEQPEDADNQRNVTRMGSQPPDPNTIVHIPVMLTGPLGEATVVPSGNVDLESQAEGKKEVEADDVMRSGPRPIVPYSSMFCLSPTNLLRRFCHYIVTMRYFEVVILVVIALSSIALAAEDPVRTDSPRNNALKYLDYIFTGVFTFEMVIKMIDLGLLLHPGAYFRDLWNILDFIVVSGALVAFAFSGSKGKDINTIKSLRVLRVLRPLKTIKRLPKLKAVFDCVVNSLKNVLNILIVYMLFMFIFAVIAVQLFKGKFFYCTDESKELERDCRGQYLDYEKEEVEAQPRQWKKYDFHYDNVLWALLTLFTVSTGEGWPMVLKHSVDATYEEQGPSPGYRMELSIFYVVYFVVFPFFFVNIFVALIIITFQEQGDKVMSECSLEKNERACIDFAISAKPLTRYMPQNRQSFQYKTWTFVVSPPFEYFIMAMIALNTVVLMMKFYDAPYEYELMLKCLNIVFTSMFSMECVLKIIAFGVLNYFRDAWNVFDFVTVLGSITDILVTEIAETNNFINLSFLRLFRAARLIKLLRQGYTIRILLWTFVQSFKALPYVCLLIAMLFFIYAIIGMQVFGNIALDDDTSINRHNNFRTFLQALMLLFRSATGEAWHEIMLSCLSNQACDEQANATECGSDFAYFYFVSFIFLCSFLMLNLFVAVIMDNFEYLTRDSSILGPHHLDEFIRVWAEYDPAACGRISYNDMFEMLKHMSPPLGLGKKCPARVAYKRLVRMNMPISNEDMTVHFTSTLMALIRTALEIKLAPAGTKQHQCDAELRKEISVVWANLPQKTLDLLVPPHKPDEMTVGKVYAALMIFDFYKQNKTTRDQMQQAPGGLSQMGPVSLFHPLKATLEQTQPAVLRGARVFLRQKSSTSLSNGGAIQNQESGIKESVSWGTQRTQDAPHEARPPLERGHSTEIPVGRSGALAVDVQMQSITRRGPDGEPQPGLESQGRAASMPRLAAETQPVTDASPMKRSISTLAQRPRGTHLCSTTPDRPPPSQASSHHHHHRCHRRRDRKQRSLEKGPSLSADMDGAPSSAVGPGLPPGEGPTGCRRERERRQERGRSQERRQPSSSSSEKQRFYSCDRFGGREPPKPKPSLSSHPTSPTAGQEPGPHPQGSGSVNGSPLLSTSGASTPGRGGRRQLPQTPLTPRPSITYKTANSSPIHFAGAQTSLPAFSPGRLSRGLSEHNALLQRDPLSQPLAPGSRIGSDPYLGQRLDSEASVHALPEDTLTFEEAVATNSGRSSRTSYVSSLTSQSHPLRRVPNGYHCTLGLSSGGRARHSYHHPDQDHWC
T6 sequence (Q02410 whole entry): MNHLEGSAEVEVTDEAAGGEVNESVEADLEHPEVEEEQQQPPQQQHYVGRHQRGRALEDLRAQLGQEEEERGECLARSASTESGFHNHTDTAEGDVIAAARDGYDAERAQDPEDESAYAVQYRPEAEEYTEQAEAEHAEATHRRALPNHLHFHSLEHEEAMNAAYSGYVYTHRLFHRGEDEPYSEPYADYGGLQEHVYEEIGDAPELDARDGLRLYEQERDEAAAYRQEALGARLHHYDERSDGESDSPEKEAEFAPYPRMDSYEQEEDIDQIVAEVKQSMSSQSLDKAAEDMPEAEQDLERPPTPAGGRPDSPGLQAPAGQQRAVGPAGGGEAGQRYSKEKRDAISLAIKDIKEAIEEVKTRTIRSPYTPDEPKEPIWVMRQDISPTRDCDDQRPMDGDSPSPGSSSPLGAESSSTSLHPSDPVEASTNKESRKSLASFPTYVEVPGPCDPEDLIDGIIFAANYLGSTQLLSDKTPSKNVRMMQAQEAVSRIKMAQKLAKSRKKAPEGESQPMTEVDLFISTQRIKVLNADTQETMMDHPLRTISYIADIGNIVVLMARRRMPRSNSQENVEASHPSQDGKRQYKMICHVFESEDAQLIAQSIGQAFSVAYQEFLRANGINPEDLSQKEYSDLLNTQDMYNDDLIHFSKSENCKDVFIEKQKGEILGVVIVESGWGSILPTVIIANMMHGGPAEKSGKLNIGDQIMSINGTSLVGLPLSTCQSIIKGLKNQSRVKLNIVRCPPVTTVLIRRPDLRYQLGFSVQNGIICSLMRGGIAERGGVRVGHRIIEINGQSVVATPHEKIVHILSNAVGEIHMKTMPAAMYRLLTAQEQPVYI

For O=C(c1cnccn1)N(Cc1cccs1)C1(C(=O)NC2CCCC2)CCCCC1, the IC50 [1] was > 43.8 µM (not active) and the IC50 [2] was > 43.8 µM (not active).
With N#CC(c1ccc(Cl)cc1)c1ncc(C(F)(F)F)cc1Cl (configuration not stated) the AC50 [3] was 0.939 µM (active).
In the case of O=C(CN1CCN(S(=O)(=O)/C=C/c2ccccc2)CC1)NC(=O)NCc1ccco1, the IC50 [4] is reported as 13.1 µM (active) and the IC50 [5] is reported as > 100 µM (inactive).
For CCOc1cc(/C=C2\SC(=S)N(C(C(=O)O)c3ccccc3)C2=O)ccc1O (configuration not stated), the IC50 [6] was 45.5 µM (active), the IC50 [7] was 31.8 µM (active) and the IC50 [8] was 23.2 µM (inactive). The EC50 [9] was 14.3 µM (active) and the IC50 [10] was greater than 32 µM.
With CCC(=O)N1c2ccc(S(=O)(=O)NCc3ccco3)cc2CC1C (configuration not stated) the IC50 [4] was 10.2 µM (active) and the IC50 [5] was 24.1 µM (active).
In the case of CSc1nnc(-c2ccc([N+](=O)[O-])cc2)o1, the AC50 [3] is reported as 6.96 µM (active).
For CCOC(=O)c1[nH]c2ccc(OC)cc2c1NS(=O)(=O)c1ccc(OC)cc1OC, the IC50 [1] was > 43.8 µM (not active) and the IC50 [2] was > 43.8 µM (not active).
In the case of CCOc1ccc(N2C(=O)CC(Sc3nnnn3-c3ccccc3)C2=O)cc1 (configuration not stated), the IC50 [11] is reported as 13.4 µM (active), the IC50 [12] is reported as 3.74 µM (active) and the IC50 [13] is reported as > 66.6 µM (inactive). The AC50 [14] was 11.5 µM (active), the AC50 [15] was 40.3 µM (active) and the AC50 [16] was 12.1 µM (active).
For CCOC(=O)c1c(-c2ccc(C)o2)csc1NC(=S)NC(=O)N(C)C, the EC50 [17] was 3.01 µM (active), the IC50 [13] was > 66.6 µM (inactive) and the AC50 [18] was “inconclusive”.
For CC1Cn2c(nnc2C23CC4CC(CC(C4)C2)C3)S1 (configuration not stated), the IC50 [19] was > 100 µM (inactive).
For O=C(N/N=C/c1ccc([N+](=O)[O-])o1)C1CCCCC1, the AC50 [20] was 21.5 µM (active) and the AC50 [21] was 501 nM (active).
